13 molecules from ChEMBL document CHEMBL4840348, “Total Syntheses and Anti-inflammatory Activities of Syringin and Its Natural Analogues” (J Nat Prod, 2021) can be followed below.

By IC50 is commonly meant the midpoint of a concentration-inhibition curve.

For data set [1], the system named is RAW264.7. In words: Antiinflammatory activity in mouse RAW264.7 cells assessed as inhibition of LPS-induced NO production pretreated with compound for 2 hrs followed by LPS stimulation measured after 18 hrs by gGriess reagent based assay. In kind it is functional, cell-based.
The test system of data set [2] is RAW264.7. In words: Cytotoxicity against mouse RAW264.7 cells assessed as reduction in cell viability at 100 uM measured after 24 hrs by MTT assay. In kind it is cell-based. The note with it: raw264.7, 24 h. (In general: Tetrazolium assays rely on reduction of a dye to a coloured formazan, in cell work by metabolically active cells.)

In the case of `COc1cc([C@@H](O)[C@@H](O)CO)cc(OC)c1O[C@@H]1O[C@H](CO)[C@@H](O)[C@H](O)[C@H]1O`, the IC50 in the data set on RAW264.7 [1] was determined as 15.4 µM. Further, the Activity result in the data set on RAW264.7 [2] is on record as “Non-Toxic”.
For `COC/C=C/c1cc(OC)c(O[C@@H]2O[C@H](CO)[C@@H](O)[C@H](O)[C@H]2O)c(OC)c1` the same measures were 14.6 µM and “Non-Toxic”.
For `COc1cc(/C=C/C(=O)O)cc(OC)c1O[C@@H]1O[C@H](CO)[C@@H](O)[C@H](O)[C@H]1O` the same measures were 18.7 µM and “Non-Toxic”.
The matching figures for `COc1cc([C@H](O)[C@H](O)CO)cc(OC)c1O[C@@H]1O[C@H](CO)[C@@H](O)[C@H](O)[C@H]1O`: 25.1 µM and “Non-Toxic”.
Regarding `COc1cc(/C=C/COC/C=C/c2cc(OC)c(O[C@@H]3O[C@H](CO)[C@@H](O)[C@H](O)[C@H]3O)c(OC)c2)cc(OC)c1O[C@@H]1O[C@H](CO)[C@@H](O)[C@H](O)[C@H]1O`, the IC50 in the data set with RAW264.7 [1] is greater than 100 µM. In addition, the Activity entry in the data set on RAW264.7 [2] is given as “Non-Toxic”.
For `COC(=O)/C=C/c1cc(OC)c(O[C@@H]2O[C@H](CO)[C@@H](O)[C@H](O)[C@H]2O)c(OC)c1` the same measures were 20.4 µM and “Non-Toxic”.
For `CCOC/C=C/c1cc(OC)c(O[C@@H]2O[C@H](CO)[C@@H](O)[C@H](O)[C@H]2O)c(OC)c1` the same measures were greater than 100 µM and “Non-Toxic”.
Turning to `COc1cc(/C=C/CO[C@@H]2O[C@H](CO)[C@@H](O)[C@H](O)[C@H]2O)cc(OC)c1O[C@@H]1O[C@H](CO)[C@@H](O)[C@H](O)[C@H]1O`, the IC50 in the data set with RAW264.7 [1] worked out at 16.6 µM. Also, the Activity result with RAW264.7 [2] was “Non-Toxic”.
For `CCCCOC/C=C/c1cc(OC)c(O[C@@H]2O[C@H](CO)[C@@H](O)[C@H](O)[C@H]2O)c(OC)c1` the same measures were greater than 100 µM and “Non-Toxic”.
Consider `Cc1ccc(-c2cc(C(F)(F)F)nn2-c2ccc(S(N)(=O)=O)cc2)cc1` [CELECOXIB], for which the IC50 with RAW264.7 [1] stood at 2.3 µM.
In the case of `COc1cc(CCCO)cc(OC)c1O[C@@H]1O[C@H](CO)[C@@H](O)[C@H](O)[C@H]1O` [DIHYDROSYRINGIN], in the data set with RAW264.7 [1], the IC50 was greater than 100 µM. Also, the Activity result with RAW264.7 [2] was “Non-Toxic”.
As to `COc1cc(/C=C/C=O)cc(OC)c1O[C@@H]1O[C@H](CO)[C@@H](O)[C@H](O)[C@H]1O` [SINAPALDEHYDE GLUCOSIDE], the concentration for half-maximal inhibition (IC50) with RAW264.7 [1] is greater than 100 µM. For the same molecule, the Activity result in the data set with RAW264.7 [2] is recorded as “Non-Toxic”.
The matching figures for `COc1cc(/C=C/CO)cc(OC)c1O[C@@H]1O[C@H](CO)[C@@H](O)[C@H](O)[C@H]1O` [SYRINGIN]: 17.2 µM and “Non-Toxic”.
